From patent publication US10273233B2, “Inhibitors of influenza viruses replication” (Vertex Pharmaceuticals Incorporated, priority 2015, dated 2019)
Read-outs that look alike come from different tables or passages of the source.

Tests used:
[1] = system: A/WS/33; assay: 3-day CP assay in MDCK cells; format: cell-based; conditions: Influenza A virus
[2] = system: A/NWS/33; assay: 3-day CP assay in MDCK cells; format: cell-based, influenza A; conditions: Influenza A virus, MDCK
[3] = system: A/Puerto Rico/8/34; assay: 3-day CP assay in MDCK cells; format: cell-based; conditions: Influenza A virus
[4] = system: A/Weiss/43; assay: 3-day CP assay in MDCK cells; format: cell-based; conditions: Influenza A virus
[5] = system: A/FM/1/47; assay: 3-day CP assay in MDCK cells; format: cell-based; conditions: Influenza A virus
[6] = system: A/Mal/302/54; assay: 3-day CP assay in MDCK cells; format: cell-based; conditions: Influenza A virus
[7] = system: A/Denver/1/57; assay: 3-day CP assay in MDCK cells; format: cell-based; conditions: Influenza A virus
[8] = system: A/Aichi/2/68; assay: 3-day CP assay in MDCK cells; format: cell-based; conditions: Influenza A virus
[9] = system: A/Hong Kong/8/68; assay: 3-day CP assay in MDCK cells; format: cell-based; conditions: Influenza A virus
[10] = system: A/Port Chalmers/1/73; assay: 3-day CP assay in MDCK cells; format: cell-based; conditions: Influenza A virus
[11] = system: A/Victoria/3/75; assay: 3-day CP assay in MDCK cells; format: cell-based; conditions: Influenza A virus
[12] = system: A/New Jersey/8/76; assay: microbe, parasite or virus in culture; format: cell-based; conditions: Influenza A virus, MDCK
[13] = system: A/Wisconsin/67/2005; assay: 3-day CP assay in MDCK cells; format: cell-based; conditions: Influenza A virus
[14] = system: A/Chelyabinsk/1/200; assay: 3-day CP assay in MDCK cells; format: cell-based; conditions: Influenza A virus
[15] = system: A/Fukushima/141/2006; assay: 3-day CP assay in MDCK cells; format: cell-based; conditions: Influenza A virus
[16] = system: A/Georgia/17/2006; assay: 3-day CP assay in MDCK cells; format: cell-based; conditions: Influenza A virus
[17] = system: A/Georgia/20/2006; assay: 3-day CP assay in MDCK cells; format: cell-based, influenza A; conditions: Influenza A virus, MDCK
[18] = system: A/Hawaii/2/2006; assay: 3-day CP assay in MDCK cells; format: cell-based; conditions: Influenza A virus
[19] = system: A/Missouri/3/2006; assay: 3-day CP assay in MDCK cells; format: cell-based; conditions: Influenza A virus
[20] = system: A/Nebraska/1/2006; assay: 3-day CP assay in MDCK cells; format: cell-based; conditions: Influenza A virus
[21] = system: A/Santiago/7981/2006; assay: 3-day CP assay in MDCK cells; format: cell-based; conditions: Influenza A virus
[22] = system: A/St. Petersburg8/2006; assay: 3-day CP assay in MDCK cells; format: cell-based; conditions: Influenza A virus
[23] = system: A/Virginia/01/2006; assay: 3-day CP assay in MDCK cells; format: cell-based; conditions: Influenza A virus
[24] = system: A/Cambodia0371/2007; assay: 3-day CP assay in MDCK cells; format: cell-based; conditions: Influenza A virus
[25] = system: A/Henan/Jinshui/147/2007; assay: 3-day CP assay in MDCK cells; format: cell-based; conditions: Influenza A virus
[26] = system: A/South Dakota/6/2007; assay: 3-day CP assay in MDCK cells; format: cell-based; conditions: Influenza A virus
[27] = system: A/Texas/12/2007; assay: 3-day CP assay in MDCK cells; format: cell-based; conditions: Influenza A virus
[28] = system: A/Uruguay/716/2007; assay: 3-day CP assay in MDCK cells; format: cell-based; conditions: Influenza A virus
[29] = system: A/California/07/2009; assay: 3-day CP assay in MDCK cells; format: cell-based; conditions: Influenza A virus, MDCK; A/California/07/2009
[30] = system: A/California/07/2009 NYMC, X-179A; assay: 3-day CP assay in MDCK cells; format: cell-based; conditions: Influenza A virus
[31] = system: A/Mexico/4108/2009; assay: 3-day CP assay in MDCK cells; format: cell-based; conditions: Influenza A virus
[32] = system: A/New York/18/2009; assay: 3-day CP assay in MDCK cells; format: cell-based; conditions: Influenza A virus
[33] = system: A/Texas/48/2009; assay: 3-day CP assay in MDCK cells; format: cell-based; conditions: Influenza A virus
[34] = system: A/Virginia/ATCC2/2009; assay: 3-day CP assay in MDCK cells; format: cell-based; conditions: Influenza A virus
[35] = system: A/Virginia/ATCC3/2009; assay: 3-day CP assay in MDCK cells; format: cell-based; conditions: Influenza A virus
[36] = system: A/Swine/Iowa/15/30; assay: microbe, parasite or virus in culture; format: cell-based, influenza A; conditions: Influenza A virus, MDCK, in Sus scrofa
[37] = system: A/Swine/1976/31; assay: microbe, parasite or virus in culture; format: cell-based; conditions: Influenza A virus, MDCK, in Sus scrofa
[38] = system: A/Equine/Miami/63; assay: microbe, parasite or virus in culture; format: cell-based; conditions: Influenza A virus, MDCK
[39] = system: B/Lee/40; assay: 3-day CP assay in MDCK cells; format: cell-based; conditions: Influenza B virus
[40] = system: B/Mass/3/66; assay: 3-day CP assay in MDCK cells; format: cell-based; conditions: Influenza B virus
[41] = system: B/Russia/69; assay: 3-day CP assay in MDCK cells; format: cell-based; conditions: Influenza B virus
[42] = system: B/Memphis/20/1996--070; assay: 3-day CP assay in MDCK cells; format: cell-based; conditions: Influenza B virus
[43] = system: B/Memphis/20/1996--071; assay: 3-day CP assay in MDCK cells; format: cell-based; conditions: Influenza B virus
[44] = rat, 30 mg/kg, pH 8
[45] = monkey, 40 mg/kg, pH 8

Structure (SMILES): NC(=O)c1nc(F)c[nH]c1=O [Compound T-705, favipiravir]
- EC50 [1]: > 10 µM
- EC50 [2]: 7.6 µM
- EC50 [3]: > 10 µM
- EC50 [4]: 1.5 µM
- EC50 [5]: 4.5 µM
- EC50 [6]: 3.4 µM
- EC50 [7]: 1.1 µM
- EC50 [8]: > 10 µM
- EC50 [9]: 4.5 µM
- EC50 [10]: 1.9 µM
- EC50 [11]: > 10 µM
- EC50 [12]: 2.1 µM
- EC50 [13]: > 10 µM
- EC50 [14]: 6.5 µM
- EC50 [15]: 1.9 µM
- EC50 [16]: 9.6 µM
- EC50 [17]: 6.3 µM
- EC50 [18]: 5.5 µM
- EC50 [19]: 5.3 µM
- EC50 [20]: 6.4 µM
- EC50 [21]: 0.86 µM
- EC50 [22]: > 10 µM
- EC50 [23]: 3.1 µM
- EC50 [24]: 6.5 µM
- EC50 [25]: 6.1 µM
- EC50 [26]: 7.1 µM
- EC50 [27]: 7.1 µM
- EC50 [28]: 4.5 µM
- EC50 [29]: 2 µM
- EC50 [30]: > 10 µM
- EC50 [31]: > 10 µM
- EC50 [32]: 1.3 µM
- EC50 [33]: 9.3 µM
- EC50 [34]: 5.3 µM
- EC50 [35]: 7.7 µM
- EC50 [36]: > 10 µM
- EC50 [37]: > 10 µM
- EC50 [38]: > 10 µM
- EC50 [39]: 6.5 µM
- EC50 [40]: 3.4 µM
- EC50 [41]: 0.29 µM
- EC50 [42]: 2.4 µM
- EC50 [43]: > 10 µM

Structure (SMILES): CC(C)(C)[C@@H](CC(=O)O)Nc1nc(-c2c[nH]c3ncc(F)cc23)ncc1F [Hydrate 2 of Compound (1)]
- in vivo exposures (AUC), comparison of formulations [44]: statistically comparable
- in vivo exposures (AUC), comparison of formulations [45]: statistically comparable

Structure (SMILES): CCC(CC)O[C@@H]1C=C(C(=O)O)C[C@H](N)[C@H]1NC(C)=O [Oseltamivir Carboxylate]
- EC50 [1]: > 10 µM
- EC50 [2]: > 10 µM
- EC50 [3]: > 10 µM
- EC50 [4]: 0.49 µM
- EC50 [5]: 6.4 µM
- EC50 [6]: 1.1 µM
- EC50 [7]: > 10 µM
- EC50 [8]: 5 µM
- EC50 [9]: 0.038 µM
- EC50 [10]: 0.12 µM
- EC50 [11]: > 10 µM
- EC50 [12]: 3.8 µM
- EC50 [13]: 0.35 µM
- EC50 [14]: > 10 µM
- EC50 [15]: 0.58 µM
- EC50 [16]: > 10 µM
- EC50 [17]: > 10 µM
- EC50 [18]: > 10 µM
- EC50 [19]: 2.5 µM
- EC50 [20]: > 10 µM
- EC50 [21]: > 10 µM
- EC50 [22]: 9.3 µM
- EC50 [23]: 0.83 µM
- EC50 [24]: 7.8 µM
- EC50 [25]: > 10 µM
- EC50 [26]: 8.2 µM
- EC50 [27]: 8.5 µM
- EC50 [28]: > 10 µM
- EC50 [29]: > 10 µM
- EC50 [30]: > 10 µM
- EC50 [31]: > 10 µM
- EC50 [32]: 0.16 µM
- EC50 [33]: > 10 µM
- EC50 [34]: > 10 µM
- EC50 [35]: > 10 µM
- EC50 [36]: 7.8 µM
- EC50 [37]: 0.56 µM
- EC50 [38]: 0.25 µM
- EC50 [39]: > 10 µM
- EC50 [40]: 6.7 µM
- EC50 [41]: 6 µM
- EC50 [42]: > 10 µM
- EC50 [43]: > 10 µM

Structure (SMILES): CC(=O)N[C@H]1[C@H]([C@H](O)[C@H](O)CO)OC(C(=O)O)=C[C@@H]1N=C(N)N [Zanamivir]
- EC50 [1]: > 10 µM
- EC50 [2]: > 10 µM
- EC50 [3]: > 10 µM
- EC50 [4]: 0.08 µM
- EC50 [5]: 2.6 µM
- EC50 [6]: 0.28 µM
- EC50 [7]: > 10 µM
- EC50 [8]: > 10 µM
- EC50 [9]: 0.15 µM
- EC50 [10]: 0.67 µM
- EC50 [11]: 4.1 µM
- EC50 [12]: 6.2 µM
- EC50 [13]: 0.16 µM
- EC50 [14]: 7.6 µM
- EC50 [15]: 0.27 µM
- EC50 [16]: > 10 µM
- EC50 [17]: 4.3 µM
- EC50 [18]: > 10 µM
- EC50 [19]: 3.6 µM
- EC50 [20]: > 10 µM
- EC50 [21]: 4 µM
- EC50 [22]: 6 µM
- EC50 [23]: 0.83 µM
- EC50 [24]: 2.1 µM
- EC50 [25]: > 10 µM
- EC50 [26]: 3.4 µM
- EC50 [27]: 8.2 µM
- EC50 [28]: 4.7 µM
- EC50 [29]: > 10 µM
- EC50 [30]: 5.6 µM
- EC50 [31]: 3.8 µM
- EC50 [32]: 0.31 µM
- EC50 [33]: 1.7 µM
- EC50 [34]: > 10 µM
- EC50 [35]: > 10 µM
- EC50 [36]: 1.8 µM
- EC50 [37]: 0.25 µM
- EC50 [38]: 0.93 µM
- EC50 [39]: > 10 µM
- EC50 [41]: 3.1 µM
- EC50 [42]: 2.6 µM
- EC50 [43]: 6 µM
